Data on 5 compounds can be found in patent US5840684A, “Glycopeptide antibiotic derivatives” (Eli Lilly and Company, priority 1995, dated 1998).

For one assay, the system named is Entercoccus faecium 276. Briefly: broth micro-dilution MIC. Type of assay: cell-based. Here is the method: (§1) The MIC's were determined using a standard broth micro-dilution assay.
(Broth dilution looks for growth in wells or tubes with falling amounts of substance.)

For assay [1], the system named is Streptococcus pyogenes C203. The assay can be described thus: broth micro-dilution MIC. Type of assay: cell-based. Here is the method:
as §1

The subject of assay [2] is Staphylococcus aureus 491. Briefly: broth micro-dilution MIC. It counts as cell-based. How it is done:
as §1

For assay [3], the system named is Staphylococcus aureus X778. The assay can be described thus: broth micro-dilution MIC. Type of assay: cell-based. Here is the method:
as §1

In assay [4] the test system is Staphylococcus aureus 447. The assay can be described thus: broth micro-dilution MIC. It counts as cell-based. How it is done:
as §1

The subject of assay [5] is Staphylococcus aureus SA1199. The assay can be described thus: broth micro-dilution MIC. Type of assay: cell-based. How it is done:
as §1

Assay [6] has as its system Entercoccus faecium 180-1. The assay can be described thus: broth micro-dilution MIC. Type of assay: cell-based. Here is the method: as §1
The test system of assay [7] is Staphylococcus aureus 489. The assay can be described thus: broth micro-dilution MIC. Type of assay: cell-based. How it is done:
as §1

In assay [8] the test system is Staphylococcus aureus 446. Briefly: broth micro-dilution MIC. It counts as cell-based. How it is done:
as §1

In assay [9] the test system is vancomycin-resistant enterococci. Briefly: broth micro-dilution, mean geometric MIC. Type of assay: cell-based, Enterococcus faecium and Enterococcus faecalis. Particulars: enterococci, 24-hour incubation.
A further assay concerns Entercoccus faecium 2041. Briefly: broth micro-dilution MIC. It counts as cell-based. Particulars: Entercoccus faecium 2041. Here is the method: (§2) The formula I compounds have in vitro and in vivo activity against Gram-positive pathogenic bacteria. The MIC's were determined using a standard broth micro-dilution assay.
For another assay, the system named is Entercoccus faecium 180. The assay can be described thus: broth micro-dilution MIC. Type of assay: cell-based. Particulars: Entercoccus faecium 180. How it is done: as §2
In assay [10] the test system is Staphylococcus haemolyticus 105. Briefly: broth micro-dilution MIC. Type of assay: cell-based. How it is done:
as §2

Assay [11] deals with Enterococcus gallinarum 245. Briefly: broth micro-dilution MIC. It counts as cell-based. Particulars: Enterococcus gallinarum 245. How it is done:
as §2

The test system of assay [12] is Staphylococcus haemolyticus 415. Briefly: broth micro-dilution MIC. It counts as cell-based. Here is the method: as §2
In assay [13] the test system is Staphylococcus epidermidis 270. The assay can be described thus: broth micro-dilution MIC. It counts as cell-based. Here is the method:
as §2

Assay [14] has as its system Haemophilus influenzae RD. The assay can be described thus: broth micro-dilution MIC. Type of assay: cell-based. Particulars: Haemophilus influenzae RD. How it is done:
as §2

Assay [15] relates to Streptococcus pneumoniae P1. The assay can be described thus: broth micro-dilution MIC. It counts as cell-based. Here is the method: as §2
In assay [16] the test system is vancomycin-susceptible enterococci. The assay can be described thus: broth micro-dilution, mean geometric MIC. It counts as cell-based, Enterococcus faecium and Enterococcus faecalis. Particulars: enterococci, 24-hour incubation.
The test system of assay [17] is Staphylococcus aureus S13E. It counts as cell-based. How it is done: as §1
Assay [18] has as its system Staphylococcus aureus SA1199B. It counts as cell-based. How it is done: as §1
For assay [19], the system named is Staphylococcus aureus SA1199A. The assay can be described thus: broth micro-dilution MIC. Type of assay: cell-based. How it is done:
as §1

Assay [20] relates to Staphylococcus aureus X400. The assay can be described thus: broth micro-dilution MIC. Type of assay: cell-based. How it is done:
as §1

The structures appear in SMILES notation. ≈ marks a conversion by molar mass, not a printed value.

As to `CNC(CC(C)C)C(=O)NC1C(=O)NC(CC(N)=O)C(=O)NC2C(=O)NC3C(=O)NC(C(=O)NC(C(=O)O)c4cc(O)cc(O)c4-c4cc3ccc4O)C(OC3CC(C)(N)C(O)C(C)O3)c3ccc(c(Cl)c3)Oc3cc2cc(c3OC2OC(CO)C(O)C(O)C2OC2CC(C)(NCc3ccc(C#Cc4ccccc4)cc3)C(O)C(C)O2)Oc2ccc(cc2Cl)C1O` (stereo not drawn) [Compound 79], the MIC is ≤ 0.06 µg/mL with Entercoccus faecium 276; ≤ 0.06 µg/mL in assay [1]; 4 µg/mL (≈ 2.24 µM) in [2]; 2 µg/mL (≈ 1.12 µM) in assay [3]; 2 µg/mL (≈ 1.12 µM) in assay [4]; 1 µg/mL (≈ 0.561 µM) in assay [5]. The MIC in assay [6] is ≤ 0.06 µg/mL; in assay [7], 2 µg/mL (≈ 1.12 µM); in assay [8], 2 µg/mL (≈ 1.12 µM); in the assay on Entercoccus faecium 2041, ≤ 0.06 µg/mL; in the assay with Entercoccus faecium 180, ≤ 0.06 µg/mL; in assay [10] it was 4 µg/mL (≈ 2.24 µM). In addition, the MIC is ≤ 0.06 µg/mL in [11]; 4 µg/mL (≈ 2.24 µM) in assay [12]; 0.5 µg/mL (≈ 0.28 µM) in assay [13]; 16 µg/mL (≈ 8.98 µM) in [14]; ≤ 0.06 µg/mL in [15]; 4 µg/mL (≈ 2.24 µM) in assay [17]. For the same compound, the MIC in assay [18] was determined as 1 µg/mL (≈ 0.561 µM). In assay [9], the “mean geometric MIC, Vancomycin Resistant Strains” value was found to be 0.84 µg/mL. Besides, the “mean geometric MIC, Vancomycin Sensitive Strains” value in [16] was 0.042 µg/mL.

Take `CNC(CC(C)C)C(=O)NC1C(=O)NC(CC(N)=O)C(=O)NC2C(=O)NC3C(=O)NC(C(=O)NC(C(=O)O)c4cc(O)cc(O)c4-c4cc3ccc4O)C(OC3CC(C)(N)C(O)C(C)O3)c3ccc(c(Cl)c3)Oc3cc2cc(c3OC2OC(CO)C(O)C(O)C2OC2CC(C)(NCCCc3ccc(OC)cc3)C(O)C(C)O2)Oc2ccc(cc2Cl)C1O` (stereo not drawn) [Compound 175]: the MIC was ≤ 0.06 µg/mL in the assay with Entercoccus faecium 276; 0.5 µg/mL (≈ 0.287 µM) in assay [1]; 0.5 µg/mL (≈ 0.287 µM) in [2]; 0.5 µg/mL (≈ 0.287 µM) in [3]; 0.5 µg/mL (≈ 0.287 µM) in assay [19]; 1 µg/mL (≈ 0.574 µM) in [4]. Also, the MIC in assay [5] is ≤ 0.06 µg/mL; in assay [6], ≤ 0.06 µg/mL; in [8], 1 µg/mL (≈ 0.574 µM); with Entercoccus faecium 2041 it was ≤ 0.06 µg/mL; against Entercoccus faecium 180, 1 µg/mL (≈ 0.574 µM); in assay [10], 2 µg/mL (≈ 1.15 µM). The MIC was 4 µg/mL (≈ 2.3 µM) in [11]; 4 µg/mL (≈ 2.3 µM) in assay [12]; 0.5 µg/mL (≈ 0.287 µM) in assay [13]; 16 µg/mL (≈ 9.19 µM) in [14]; 0.5 µg/mL (≈ 0.287 µM) in [15]; ≤ 0.06 µg/mL in assay [18]. Also, the “mean geometric MIC, Vancomycin Resistant Strains” value in assay [9] stood at 9.5 µg/mL. Besides, the “mean geometric MIC, Vancomycin Sensitive Strains” value in assay [16] is 0.22 µg/mL.

With `CNC(CC(C)C)C(=O)NC1C(=O)NC(CC(N)=O)C(=O)NC2C(=O)NC3C(=O)NC(C(=O)NC(C(=O)O)c4cc(O)cc(O)c4-c4cc3ccc4O)C(OC3CC(C)(N)C(O)C(C)O3)c3ccc(c(Cl)c3)Oc3cc2cc(c3OC2OC(CO)C(O)C(O)C2OC2CC(C)(NCc3ccc4cc(C)ccc4c3)C(O)C(C)O2)Oc2ccc(cc2Cl)C1O` (stereo not drawn) [Compound 189], the MIC in assay [1] was ≤ 0.06 µg/mL; in assay [2] it was ≤ 0.06 µg/mL; in assay [19] it was ≤ 0.06 µg/mL; in [4], 0.5 µg/mL (≈ 0.286 µM); in [5], 0.5 µg/mL (≈ 0.286 µM); in [6], ≤ 0.06 µg/mL. Also, the MIC was 1 µg/mL (≈ 0.573 µM) in assay [7]; 0.5 µg/mL (≈ 0.286 µM) in assay [8]; ≤ 0.06 µg/mL in the assay with Entercoccus faecium 2041; 1 µg/mL (≈ 0.573 µM) in assay [10]; 1 µg/mL (≈ 0.573 µM) in [11]; 1 µg/mL (≈ 0.573 µM) in [12]. Besides, the MIC is 32 µg/mL (≈ 18.3 µM) in assay [14], ≤ 0.06 µg/mL in assay [15], 0.5 µg/mL (≈ 0.286 µM) in [17] and 1 µg/mL (≈ 0.573 µM) in assay [18]. Moreover, the “mean geometric MIC, Vancomycin Resistant Strains” value in [9] was determined as 2.4 µg/mL. Also, in assay [16], the “mean geometric MIC, Vancomycin Sensitive Strains” value came to 0.10 µg/mL.

As for `CNC(CC(C)C)C(=O)NC1C(=O)NC(CC(N)=O)C(=O)NC2C(=O)NC3C(=O)NC(C(=O)NC(C(=O)O)c4cc(O)cc(O)c4-c4cc3ccc4O)C(OC3CC(C)(N)C(O)C(C)O3)c3ccc(c(Cl)c3)Oc3cc2cc(c3OC2OC(CO)C(O)C(O)C2OC2CC(C)(NCCCC3CCCC3)C(O)C(C)O2)Oc2ccc(cc2Cl)C1O` (stereo not drawn) [Compound 208], the MIC in [1] is ≤ 0.06 µg/mL; in [2] it was 0.5 µg/mL (≈ 0.294 µM); in assay [19] it was ≤ 0.06 µg/mL; in [4], 1 µg/mL (≈ 0.587 µM); in [5], 0.5 µg/mL (≈ 0.294 µM); in assay [6], ≤ 0.06 µg/mL. For the same compound, the MIC in assay [7] is 0.5 µg/mL (≈ 0.294 µM); in [8], 1 µg/mL (≈ 0.587 µM); in the assay on Entercoccus faecium 2041 it was ≤ 0.06 µg/mL; in [11], 2 µg/mL (≈ 1.17 µM); in assay [12], 2 µg/mL (≈ 1.17 µM); in assay [13], 0.5 µg/mL (≈ 0.294 µM). Also, the MIC was 32 µg/mL (≈ 18.8 µM) in [14], ≤ 0.06 µg/mL in [15] and 0.5 µg/mL (≈ 0.294 µM) in [18]. The “mean geometric MIC, Vancomycin Resistant Strains” value in assay [9] stood at 2.8 µg/mL. In addition, the “mean geometric MIC, Vancomycin Sensitive Strains” value in assay [16] is 0.17 µg/mL.

As for `CNC(CC(C)C)C(=O)NC1C(=O)NC(CC(N)=O)C(=O)NC2C(=O)NC3C(=O)NC(C(=O)NC(C(=O)O)c4cc(O)cc(O)c4-c4cc3ccc4O)C(OC3CC(C)(N)C(O)C(C)O3)c3ccc(c(Cl)c3)Oc3cc2cc(c3OC2OC(CO)C(O)C(O)C2OC2CC(C)(NCCCCC#Cc3ccccc3)C(O)C(C)O2)Oc2ccc(cc2Cl)C1O` (stereo not drawn) [Compound 235], the MIC with Entercoccus faecium 276 is 0.125 µg/mL (≈ 0.0715 µM); in assay [1], ≤ 0.06 µg/mL; in assay [2] it was 0.125 µg/mL (≈ 0.0715 µM); in assay [3] it was 0.5 µg/mL (≈ 0.286 µM); in assay [20], 0.125 µg/mL (≈ 0.0715 µM); in assay [19] it was ≤ 0.06 µg/mL. Also, the MIC in assay [6] is ≤ 0.06 µg/mL; in assay [7], 0.5 µg/mL (≈ 0.286 µM); in [8], 0.5 µg/mL (≈ 0.286 µM); against Entercoccus faecium 2041, ≤ 0.06 µg/mL; with Entercoccus faecium 180, 0.5 µg/mL (≈ 0.286 µM); in assay [10] it was 0.5 µg/mL (≈ 0.286 µM). Besides, the MIC is 1 µg/mL (≈ 0.572 µM) in assay [11]; 1 µg/mL (≈ 0.572 µM) in assay [12]; 0.5 µg/mL (≈ 0.286 µM) in [13]; 8 µg/mL (≈ 4.57 µM) in assay [14]; ≤ 0.06 µg/mL in assay [15]; 0.125 µg/mL (≈ 0.0715 µM) in assay [17]. The compound also gave an MIC in [18] of 0.5 µg/mL (≈ 0.286 µM). For the same compound, the “mean geometric MIC, Vancomycin Resistant Strains” value in assay [9] came to 2.4 µg/mL.
